Source: patent US12502380B2, “MrgprX2 antagonists for the treatment of inflammatory disorders” (Dermira, Inc., priority 2019, dated 2025)

What follows are compounds tested against T1, Human MrgprX2 (Homo sapiens, UniProt Q96LB1) (assay: Human MrgprX2 antagonist FLIPR intracellular calcium mobilization assay). Conditions: antagonist activity, recombinant hMrgpMRGPRX2 expressing cells, read-out: Human MrgprX2 Antagonist pIC50 (converted).
T1 construct: expressed in transfected cells
T1 sequence (Q96LB1 1-330): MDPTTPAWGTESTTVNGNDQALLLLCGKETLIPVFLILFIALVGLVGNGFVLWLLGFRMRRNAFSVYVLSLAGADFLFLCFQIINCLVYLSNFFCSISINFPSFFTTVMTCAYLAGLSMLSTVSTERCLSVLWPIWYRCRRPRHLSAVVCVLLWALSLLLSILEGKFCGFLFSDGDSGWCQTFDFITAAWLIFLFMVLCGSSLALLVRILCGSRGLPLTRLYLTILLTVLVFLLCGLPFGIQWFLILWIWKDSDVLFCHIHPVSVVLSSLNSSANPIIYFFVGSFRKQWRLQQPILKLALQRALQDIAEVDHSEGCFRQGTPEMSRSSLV
Assay type: cell-based
Summary of the method: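 Antagonist activity was read as inhibition of intracellular calcium mobilization (FLIPR) in recombinant cells expressing human MrgprX2. Potency was also checked in LAD-2 human mast cells with endogenous receptor, and orthologue activity in cells expressing mouse MrgprB2, mouse MrgprA1, and gerbil, Chinese hamster and cynomolgus orthologues.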
An IC50 of 7.94 nM was found for CCN(C[C@H](C)O)C(=O)Nc1nc(C)c(Oc2ccc(F)cc2)s1 [Compound E208] in this work. An IC50 of 3.16 nM was found for CCN(C[C@H](C)O)C(=O)Nc1nc(C)c(Oc2cc(F)cc(C#N)c2)s1 [Compound E209] in this work. An IC50 of 2.51 nM was found for CCN(C[C@@H](C)O)C(=O)Nc1ncc(Oc2cc(F)cc(C#N)c2)s1 [Compound E210] in this work. An IC50 of 398 nM was found for CCN(C[C@@H](C)O)C(=O)Nc1ncc(Oc2ccc(C#N)cc2)s1 [Compound E211] in this work. An IC50 of 158 nM was found for CCN(C[C@H](C)O)C(=O)Nc1ncc(Oc2ccc(C#N)nc2)s1 [Compound E212] in this work. An IC50 of 1260 nM was found for CCN(C[C@H](C)O)C(=O)Nc1ncc(Oc2ccc(CC#N)cc2)s1 [Compound E213] in this work. An IC50 of 3160 nM was found for CCN(C[C@H](C)O)C(=O)Nc1ncc(Oc2ccc(C(=O)OC)cc2)s1 [Compound E214] in this work. An IC50 of 7940 nM was found for CCN(C[C@H](C)O)C(=O)Nc1cnc(Oc2cc(F)cc(F)c2)s1 [Compound E215] in this work. An IC50 of 7940 nM was found for CC(C)C(=O)Nc1cnc(Cc2cccc(F)c2)s1 [Compound E216, N-[2-[(3-fluorophenyl)methyl]thiazol-5-yl]-2-methyl-propanamide] in this work. An IC50 of 2000 nM was found for CC(C)NC(=O)c1ncc(Cc2cccc(F)c2)s1 [Compound E217, 5-[(3-fluorophenyl)methyl]-N-isopropyl-thiazole-2-carboxamide] in this work. An IC50 of 7940 nM was found for CC(C)N(C)C(=O)c1ncc(Cc2cccc(F)c2)s1 [Compound E218, 5-[(3-fluorophenyl)methyl]-N-isopropyl-N-methyl-thiazole-2-carboxamide] in this work. An IC50 of 794 nM was found for CC(C)C(=O)Nc1ncc(C(C)c2ccccc2)s1 (stereo not shown) [Compound E219, 2-methyl-N-[5-(1-phenylethyl)thiazol-2-yl]propanamide] in this work. An IC50 of 6310 nM was found for CC(C)NC(=O)c1nc(F)c(Cc2ccc(F)cc2)s1 [Compound E220, 4-fluoro-5-[(4-fluorophenyl)methyl]-N-isopropyl-thiazole-2-carboxamide] in this work. An IC50 of 6310 nM was found for CC(C)NC(=O)c1cc(Cc2cc(F)cc(F)c2)on1 [Compound E221, 5-[(3,5-difluorophenyl)methyl]-N-isopropyl-isoxazole-3-carboxamide] in this work. An IC50 of 3980 nM was found for CC(C)c1nc2ccc(Oc3ccccc3)cc2[nH]1 [Compound E222, 6-phenoxy-2-(propan-2-yl)-1H-1,3-benzodiazole] in this work. An IC50 of 7940 nM was found for CC(C)C(=O)Nc1csc(C(=O)NCc2ccccc2)c1 [Compound E223, N-benzyl-4-(2-methylpropanoylamino)thiophene-2-carboxamide] in this work.
